According to patent US20250268884A1, “Deuterated Domperidone for Treating Gastroparesis” (CinDome Pharma, Inc., priority 2022, published 2025):

Legend:
[1] = test system: cardiac repolarization (QTcF) in healthy subjects; test: Thorough QT study, by-time point analysis of ΔΔQTcF; settings: for ΔΔQTcF LS Mean: 400 mg moxifloxacin (Treatment C)
Experimental: The primary objective of this study was to assess the effect of CIN-102 on cardiac repolarization based on baseline and placebo-corrected change in corrected QT interval using Fridericia's formula (QTcF) in healthy subjects using a concentration-QTc analysis (primary analysis). Serial ECGs were extracted from continuous ECG recordings at prespecified time points starting at least one hour prior to dosing and ending approximately 48 hours post-dose in each period.
Primary analysis was based on concentration-QTc modeling of the relationship between plasma drug concentrations and change-from-baseline QTcF (ΔQTcF) with the intent to exclude an effect of placebo-corrected ΔQTcF (ΔΔQTcF) >10 milliseconds (ms) at clinically relevant plasma levels.
The study was a randomized, partially double-blind, active- and placebo-controlled, single dose, four-period, crossover study in healthy subjects 18-55 years of age.
In each treatment period, continuous 12-lead ECGs were recorded starting at least one hour prior to dosing and ending approximately 48 hours post-dose. Twelve-lead ECGs were extracted in up to 10 replicates at the central ECG laboratory (ERT, Philadelphia, PA) at the following time points in each period: at 3 time points within one hour prior to dosing (−45, −30 and −15 minutes) and at 0.5, 1, 1.5, 2, 2.5, 3, 4, 5, 6, 8, 12, 24, 36, and 48 hours after each dose. Subjects were supinely resting for at least 10 minutes before and 5 minutes after each time point. When ECG extractions coincided with safety, ECGs, vital signs assessment, and blood draws, procedures were carried out in said order. No PK or other laboratory draws were performed and the subject was not approached until at least 5 minutes had elapsed after the 5-minute window for 12-lead ECG extraction for QT analysis.
ECG intervals were measured by the core laboratory in a blinded manner using the Early Precision QT technique (EPQT). The ECG database was locked before any statistical analysis was undertaken.
At each nominal time point specified in the protocol, up to 10 ECG replicates were extracted with TQT Plus methods. All readable cardiac cycles from these ECG replicates were assessed for multiple quality metrics, including beat stability, HR changes, noise, and other parameters, and were categorized into high and low confidence rank. All low confidence beats were fully reviewed and adjudicated manually by ECG technicians using pass-fail criteria. The beats found acceptable by manual review were included in the analysis.
An unstructured covariance structure was used to specify the repeated measures at post-dose time points for subject within treatment period. The model also included a subject-specific random effect. Treatment A: 30 mg CIN-102 [representing approximate steady-state therapeutic exposures in subject population] Treatment B: 100 mg CIN-102 [representing potential steady-state supratherapeutic exposures in subjects] Treatment C: 400 mg open-label moxifloxacin.

[2] = test system: cardiac conduction (QRS interval) in healthy subjects; test: Thorough QT study, placebo-corrected change-from-baseline QRS (ΔΔQRS); settings: 400 mg moxifloxacin (Treatment C)
Experimental: (§1) Categorical T-wave morphology analysis and measurement of PR and QRS intervals were fully performed manually using a semi-automated process in 3 of the 10 ECG replicates at each time point. Final quality control and diagnostic interpretations were performed by the study cardiologist.
An unstructured covariance structure was used to specify the repeated measures at post-dose time points for subject within treatment period. The model also included a subject-specific random effect.

[3] = test system: heart rate in healthy subjects; test: Thorough QT study, placebo-corrected change-from-baseline HR (ΔΔHR); format: in vivo, human; settings: 400 mg moxifloxacin (Treatment C)
[4] = Thorough QT study, plasma pharmacokinetics; format: in vivo, human; settings: 400 mg single dose, healthy subjects
Text: Blood samples for PK determination were drawn at the same time points immediately after the ECG extractions.

[5] = test system: cardiac repolarization (QTcF) in healthy subjects; settings: human, in vivo
Text: The same linear model was used for moxifloxacin.
The same linear model with a treatment effect-specific intercept as in the concentration-QTc analysis was used in the assay sensitivity analysis for moxifloxacin.

[6] = test system: cardiac conduction (PR interval) in healthy subjects; test: Thorough QT study, placebo-corrected change-from-baseline PR (ΔΔPR); settings: 400 mg moxifloxacin (Treatment C)
Text: The secondary endpoints were: • Change-from-baseline QTcF, HR, PR, QRS intervals (ΔQTcF, ΔHR, ΔPR, and ΔQRS) • Placebo-corrected change-from-baseline HR, PR, and QRS (ΔΔHR, ΔΔPR, ΔΔQRS) • Categorical outliers for QTcF, HR, PR, and QRS • Frequency of treatment-emergent changes of T-wave morphology and U-waves presence
as §1
An unstructured covariance structure was used to specify the repeated measures at post-dose time points for subject within treatment period. The model also included a subject-specific random effect. Treatment A: 30 mg CIN-102 [representing approximate steady-state therapeutic exposures in subject population]; Treatment B: 100 mg CIN-102 [representing potential steady-state supratherapeutic exposures in subjects]; Treatment C: 400 mg open-label moxifloxacin

healthy subjects = test: Thorough QT study, categorical outliers and T-wave morphology
Experimental: Categorical T-wave morphology analysis and measurement of PR and QRS intervals were fully performed manually using a semi-automated process in 3 of the 10 ECG replicates at each time point.
Treatment A: 30 mg CIN-102 [representing approximate steady-state therapeutic exposures in subject population]; Treatment B: 100 mg CIN-102 [representing potential steady-state supratherapeutic exposures in subjects]; Treatment C: 400 mg open-label moxifloxacin; Treatment D: CIN-102 placebo. A subject can appear in more than 1 category. The denominator (Total) is defined as the number of subjects or time points in the QT/QTc population for each treatment.

[7] = 400 mg moxifloxacin (Treatment C), Total 51 subjects
[8] = 400 mg moxifloxacin (Treatment C), Total 762 time points
[9] = Treatment C: 400 mg open-label moxifloxacin, of 51 subjects
[10] = Treatment C: 400 mg open-label moxifloxacin, of 762 time points

COc1c(N2C[C@@H]3CCCN[C@@H]3C2)c(F)cc2c(=O)c(C(=O)O)cn(C3CC3)c12 [moxifloxacin]
peak LS mean ΔΔQTcF ([1]; 400 mg oral moxifloxacin, 3 hours post-dose): 13.3 ms | ΔΔQTcF LS Mean ([1]; 0.5 H Post Dose): 5.8 ms | ΔΔQTcF LS Mean ([1]; 1 H Post Dose): 12.2 ms | ΔΔQTcF LS Mean ([1]; 1.5 H Post Dose): 10.9 ms | ΔΔQTcF LS Mean ([1]; 2 H Post Dose): 11.3 ms | ΔΔQTcF LS Mean ([1]; 2.5 H Post Dose): 11.7 ms | ΔΔQTcF LS Mean ([1]; 3 H Post Dose): 13.3 ms | ΔΔQTcF LS Mean ([1]; 4 H Post Dose): 12.1 ms | ΔΔQTcF LS Mean ([1]; 5 H Post Dose): 10.3 ms | ΔΔQTcF LS Mean ([1]; 6 H Post Dose): 7.5 ms | ΔΔQTcF LS Mean ([1]; 8 H Post Dose): 8.9 ms | ΔΔQTcF LS Mean ([1]; 12 H Post Dose): 8.2 ms | ΔΔQTcF LS Mean ([1]; 24 H Post Dose): 4.0 ms | ΔΔQTcF LS Mean ([1]; 36 H Post Dose): 3.0 ms | ΔΔQTcF LS Mean ([1]; 48 H Post Dose): 2.6 ms | ΔΔQRS LS Mean ([2]; 0.5 H Post Dose): 0.1 ms | ΔΔQRS LS Mean ([2]; 1 H Post Dose): 0.5 ms | ΔΔQRS LS Mean ([2]; 1.5 H Post Dose): 0.3 ms | ΔΔQRS LS Mean ([2]; 2 H Post Dose): 0.4 ms | ΔΔQRS LS Mean ([2]; 2.5 H Post Dose): 0.4 ms | ΔΔQRS LS Mean ([2]; 3 H Post Dose): 0.6 ms | ΔΔQRS LS Mean ([2]; 4 H Post Dose): 0.1 ms | ΔΔQRS LS Mean ([2]; 5 H Post Dose): 0.7 ms | ΔΔQRS LS Mean ([2]; 6 H Post Dose): -0.1 ms | ΔΔQRS LS Mean ([2]; 8 H Post Dose): 0.5 ms | ΔΔQRS LS Mean ([2]; 12 H Post Dose): 0.1 ms | ΔΔQRS LS Mean ([2]; 24 H Post Dose): 0.0 ms | ΔΔQRS LS Mean ([2]; 36 H Post Dose): 0.5 ms | ΔΔQRS LS Mean ([2]; 48 H Post Dose): 0.6 ms | ΔΔHR LS Mean ([3]; 0.5 H Post Dose): 1.9 bpm | ΔΔHR LS Mean ([3]; 1 H Post Dose): 2.2 bpm | ΔΔHR LS Mean ([3]; 1.5 H Post Dose): 1.0 bpm | ΔΔHR LS Mean ([3]; 2 H Post Dose): 1.3 bpm | ΔΔHR LS Mean ([3]; 2.5 H Post Dose): −0.3 bpm | ΔΔHR LS Mean ([3]; 3 H Post Dose): −0.0 bpm | ΔΔHR LS Mean ([3]; 4 H Post Dose): 0.7 bpm | ΔΔHR LS Mean ([3]; 5 H Post Dose): −0.0 bpm | ΔΔHR LS Mean ([3]; 6 H Post Dose): −1.3 bpm | ΔΔHR LS Mean ([3]; 8 H Post Dose): 0.7 bpm | ΔΔHR LS Mean ([3]; 12 H Post Dose): −1.9 bpm | ΔΔHR LS Mean ([3]; 24 H Post Dose): −0.1 bpm | ΔΔHR LS Mean ([3]; 36 H Post Dose): −0.3 bpm | ΔΔHR LS Mean ([3]; 48 H Post Dose): 0.8 bpm | geometric mean peak moxifloxacin concentration [4]: 1552.6 ng/mL | lower bound of the 2-sided CI of the predicted QT effect [5]: above 5 ms | ΔΔPR LS Mean ([6]; 0.5 H Post Dose): -3.4 ms | ΔΔPR LS Mean ([6]; 1 H Post Dose): -2.9 ms | ΔΔPR LS Mean ([6]; 1.5 H Post Dose): -3.6 ms | ΔΔPR LS Mean ([6]; 2 H Post Dose): -2.5 ms | ΔΔPR LS Mean ([6]; 2.5 H Post Dose): -1.3 ms | ΔΔPR LS Mean ([6]; 3 H Post Dose): -2.7 ms | ΔΔPR LS Mean ([6]; 4 H Post Dose): -2.0 ms | ΔΔPR LS Mean ([6]; 5 H Post Dose): -2.0 ms | ΔΔPR LS Mean ([6]; 6 H Post Dose): -3.0 ms | ΔΔPR LS Mean ([6]; 8 H Post Dose): -0.9 ms | ΔΔPR LS Mean ([6]; 12 H Post Dose): -0.0 ms | ΔΔPR LS Mean ([6]; 24 H Post Dose): -2.5 ms | ΔΔPR LS Mean ([6]; 36 H Post Dose): 0.9 ms | ΔΔPR LS Mean ([6]; 48 H Post Dose): -0.3 ms | Subjects with QTcF >450 and <=480 ms, number (healthy subjects; [7]): 6 | Subjects with QTcF >450 and <=480 ms, percent (healthy subjects; [7]): (11.8%) | Subjects with QTcF >480 and <=500 ms, number (healthy subjects; [7]): 0 | Subjects with QTcF >500 ms, number (healthy subjects; [7]): 0 | Time points with QTcF >450 and <=480 ms, number (healthy subjects; [8]): 19 | Time points with QTcF >450 and <=480 ms, percent (healthy subjects; [8]): (2.5%) | Time points with QTcF >480 and <=500 ms, number (healthy subjects; [8]): 0 | Time points with QTcF >500 ms, number (healthy subjects; [8]): 0 | subjects with QTcF >450 and <480 ms (healthy subjects; 400 mg moxifloxacin, at 19 time points): 6 subject(s) | QTcF outliers per change-from-baseline category: QTcF >30 and <=60 ms, subjects (healthy subjects; [9]): 0 | QTcF outliers per change-from-baseline category: QTcF >60 ms, subjects (healthy subjects; [9]): 0 | QTcF outliers per change-from-baseline category: QTcF >30 and <=60 ms, time points (healthy subjects; [10]): 0 | QTcF outliers per change-from-baseline category: QTcF >60 ms, time points (healthy subjects; [10]): 0 | subjects with treatment-emergent inverted T waves (healthy subjects; moxifloxacin treatment period, at 1 time point): 1 subject
